The first assay has as its target T1, human TRPA1 (Homo sapiens (Human), UniProt O75762). The assay can be described thus: Measurement of TRPA1 antagonist activity (1): intracellular calcium increase. It counts as cell-based. The settings on record: 293T cells transfected with human TRPA1 expression plasmid; allylisothiocyanate 20 μM stimulation; intracellular calcium fluorescence; read-out: hTRPA1 IC50. An outline of the steps:
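HEK293T cells transiently transfected with full-length human TRPA1, loaded with Calcium4 dye in HBSS/20 mM HEPES pH 7.2. Test compound preincubated 10 min, then allylisothiocyanate added at 20 μM final and fluorescence change followed for 5 min. IC50 from sigmoid fit of percent inhibition relative to agonist and buffer controls.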
T1 sequence (O75762 whole entry): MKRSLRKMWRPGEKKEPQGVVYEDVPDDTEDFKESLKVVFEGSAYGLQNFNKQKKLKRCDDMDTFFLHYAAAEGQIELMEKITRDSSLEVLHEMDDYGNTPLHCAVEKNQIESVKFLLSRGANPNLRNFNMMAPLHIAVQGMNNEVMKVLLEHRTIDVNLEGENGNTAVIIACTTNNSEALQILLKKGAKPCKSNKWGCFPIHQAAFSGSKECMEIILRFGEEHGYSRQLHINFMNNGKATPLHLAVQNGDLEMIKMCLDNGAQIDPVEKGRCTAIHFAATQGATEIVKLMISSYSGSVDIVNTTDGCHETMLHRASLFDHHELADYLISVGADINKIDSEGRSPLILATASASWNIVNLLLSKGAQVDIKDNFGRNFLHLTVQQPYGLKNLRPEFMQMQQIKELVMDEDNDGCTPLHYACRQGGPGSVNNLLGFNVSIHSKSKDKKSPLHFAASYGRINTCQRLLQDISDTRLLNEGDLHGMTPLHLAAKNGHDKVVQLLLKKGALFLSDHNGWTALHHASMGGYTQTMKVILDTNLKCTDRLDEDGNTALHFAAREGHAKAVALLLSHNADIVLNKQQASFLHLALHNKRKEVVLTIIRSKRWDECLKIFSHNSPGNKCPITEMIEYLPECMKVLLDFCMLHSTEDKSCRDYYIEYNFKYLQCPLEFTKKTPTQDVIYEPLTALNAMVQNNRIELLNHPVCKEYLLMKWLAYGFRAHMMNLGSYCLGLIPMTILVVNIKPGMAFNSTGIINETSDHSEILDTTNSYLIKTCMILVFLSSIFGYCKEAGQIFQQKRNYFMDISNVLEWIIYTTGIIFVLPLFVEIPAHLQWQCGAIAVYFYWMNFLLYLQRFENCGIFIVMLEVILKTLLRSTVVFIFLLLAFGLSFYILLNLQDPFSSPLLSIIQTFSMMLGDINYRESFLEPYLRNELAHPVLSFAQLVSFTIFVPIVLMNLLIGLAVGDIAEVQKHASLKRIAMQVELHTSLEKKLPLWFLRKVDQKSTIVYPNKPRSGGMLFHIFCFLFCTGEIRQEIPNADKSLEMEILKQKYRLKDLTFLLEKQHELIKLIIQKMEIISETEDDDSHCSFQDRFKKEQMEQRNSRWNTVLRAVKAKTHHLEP
The term IC50 denotes the concentration at which inhibition is half-maximal. With `O=C(NCc1cncc(-c2ccc(C(F)(F)F)cn2)c1)[C@@H]1CCCN1S(=O)(=O)c1cc2ccccc2o1` [Example 87, (2S)-1-(benzofuran-2-ylsulfonyl)-N-[[5-[5-(trifluoromethyl)-2-pyridyl]-3-pyridyl]methyl]pyrrolidine-2-carboxamide], the IC50 was 26 nM.
Consider `O=C(NCc1cc(-c2ccc(C(F)(F)F)cn2)ccn1)[C@@H]1CCCN1S(=O)(=O)c1cc2ccccc2o1` [Example 179, (2S)-1-(benzofuran-2-ylsulfonyl)-N-[[4-[5-(trifluoromethyl)-2-pyridyl]-2-pyridyl]methyl]pyrrolidine-2-carboxamide], for which the IC50 was 1.3 nM.
Take `C[C@H](NS(=O)(=O)c1cc2cc(F)ccc2o1)C(=O)NCc1cc(-c2ccc(C(F)(F)F)nc2)ncn1` [Example 191, (2S)-2-[(5-fluorobenzofuran-2-yl)sulfonylamino]-N-[[6-[6-(trifluoromethyl)-3-pyridyl]pyrimidin-4-yl]methyl]propanamide]: the IC50 came out at 12 nM.

The next assay concerns the target T1, human TRPA1. The assay can be described thus: Measurement of TRPA1 antagonist activity (2): as (1), different lot of human TRPA1 expression plasmid. Type of assay: cell-based. The following applies: 293T cells transfected with human TRPA1, allylisothiocyanate 20 μM stimulation, calcium fluorescence, read-out: hTRPA1 IC50. An outline of the steps: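 HEK293T cells transiently transfected with human TRPA1 plasmid (different lot), loaded with Calcium4 dye in HBSS/20 mM HEPES pH 7.2. Test compound preincubated 10 min, then allylisothiocyanate added at 20 μM final and fluorescence change read for 5 min. IC50 from sigmoid fit of inhibition relative to AITC-alone and buffer controls.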
As for `O=C(NCc1cncc(-c2ccc(C(F)(F)F)cn2)c1)[C@@H]1CCCN1S(=O)(=O)c1cc2ccccc2o1` [Example 87, (2S)-1-(benzofuran-2-ylsulfonyl)-N-[[5-[5-(trifluoromethyl)-2-pyridyl]-3-pyridyl]methyl]pyrrolidine-2-carboxamide], the IC50 is 52 nM.
Consider `O=C(NCc1cc(-c2ccc(C(F)(F)F)cn2)ccn1)C(CF)NS(=O)(=O)c1cc2cc(F)ccc2o1` (centres unmarked) [Example 427, 3-fluoro-2-[(5-fluorobenzofuran-2-yl)sulfonylamino]-N-[[4-[5-(trifluoromethyl)-2-pyridyl]-2-pyridyl]methyl]propanamide], for which the IC50 stood at 170 nM.
As to `O=C(CN(CC1CCNCC1)S(=O)(=O)c1cc2cc(F)ccc2o1)NCc1cc(-c2ccc(C(F)(F)F)cc2)ncn1` [Example 424, 2-[(5-fluorobenzofuran-2-yl)sulfonyl-(4-piperidylmethyl)amino]-N-[[6-[4-(trifluoromethyl)phenyl]pyrimidin-4-yl]methyl]acetamide], the IC50 came to 21 nM.
On to `O=C(NCc1ccnc(-c2ccc(C(F)(F)F)cc2O)c1)[C@@H]1CCN1S(=O)(=O)c1cc2ccccc2o1` [Example 411, (2S)-1-(benzofuran-2-ylsulfonyl)-N-[[2-[2-hydroxy-4-(trifluoromethyl)phenyl]-4-pyridyl]methyl]azetidine-2-carboxamide], for which the half-inhibitory concentration (IC50) was 25 nM.
Take `CN(C)c1nc(CNC(=O)[C@@H]2CCCN2S(=O)(=O)c2cc3cc(F)ccc3o2)cc(-c2ccc(C(F)(F)F)cc2O)n1` [Example 397, (2S)-N-[[2-(dimethylamino)-6-[2-hydroxy-4-(trifluoromethyl)phenyl]-pyrimidin-4-yl]methyl]-1-(5-fluorobenzofuran-2-yl)sulfonyl-pyrrolidine-2-carboxamide]: the IC50 was determined as 6.8 nM.
Regarding `C[C@H](NS(=O)(=O)c1cc2cc(F)ccc2o1)C(=O)NCc1ccc(O)c(-c2ccc(C(F)(F)F)nn2)c1` [Example 381], the IC50 is 20 nM.
For the compound `Nc1nc(CNC(=O)[C@@H]2CCCN2S(=O)(=O)c2cc3cc(F)ccc3o2)cc(-c2ccc(C(F)(F)F)cc2)n1` [Example 382, (2S)-N-[[2-amino-6-[4-(trifluoromethyl)phenyl]-pyrimidin-4-yl]methyl]-1-(5-fluorobenzofuran-2-yl)sulfonyl-pyrrolidine-2-carboxamide], the IC50 is 27 nM.
Same read-out and setting: next, `O=C(CNS(=O)(=O)c1cc2cc(F)ccc2o1)NCc1cc(-c2ccc(C(F)(F)F)cc2)ncn1` [Example 345, 2-[(5-fluorobenzofuran-2-yl)sulfonylamino]-N-[[6-[4-(trifluoromethyl)phenyl]-pyrimidin-4-yl]methyl]acetamide]: 270 nM; `C[C@@H](C(=O)NCc1cc(-c2ccc(C(F)(F)F)cc2)ncn1)N(C)S(=O)(=O)c1cc2cc(F)ccc2o1` [Example 421, (2S)-2-[(5-fluorobenzofuran-2-yl)sulfonyl-methyl-amino]-N-[[6-[4-(trifluoromethyl)phenyl]pyrimidin-4-yl]methyl]propanamide]: 2.9 nM; `CCN([C@@H](C)C(=O)NCc1cc(-c2ccc(C(F)(F)F)cc2)ncn1)S(=O)(=O)c1cc2cc(F)ccc2o1` [Example 422, (2S)-2-[ethyl-(5-fluorobenzofuran-2-yl)sulfonyl-amino]-N-[[6-[4-(trifluoromethyl)phenyl]pyrimidin-4-yl]methyl]propanamide]: 3 nM.
For `CC(C)N(CC(=O)NCc1cc(-c2cnc(C(F)(F)F)nc2)ncn1)S(=O)(=O)c1cc2cc(F)ccc2o1` [Example 360, 2-[(5-fluorobenzofuran-2-yl)sulfonyl-isopropyl-amino]-N-[[6-[2-(trifluoromethyl)pyrimidin-5-yl]pyrimidin-4-yl]methyl]acetamide], the IC50 amounted to 10 nM.
Turning to `O=C(NCc1cc(-c2ncc(C(F)(F)F)cn2)ccn1)[C@@H]1CCCN1S(=O)(=O)c1cc2cc(F)ccc2o1` [Example 407, (2S)-1(5-fluorobenzofuran-2-yl)sulfonyl-N-[[4-[5-(trifluoromethyl)pyrimidin-2-yl]-2-pyridyl]methyl]pyrrolidine-2-carboxamide], the IC50 was 7 nM.
Turning to `O=C(NCc1cc(-c2cnc(C(F)(F)F)nc2)ncn1)[C@@H]1CCN1S(=O)(=O)c1cc2cc(F)ccc2o1` [Example 387, (2S)-1-(5-fluorobenzofuran-2-yl)sulfonyl-N-[[6-[2-(trifluoromethyl)pyrimidin-5-yl]pyrimidin-4-yl]methyl]azetidine-2-carboxamide], the half-maximal inhibitory concentration (IC50) turned out to be 55 nM.
Turning to `CC(C)N(CC(=O)NCc1cc(-c2ccc(C(F)(F)F)cc2)ncn1)S(=O)(=O)c1cc2cnccc2o1` [Example 368, 2-[furo[3,2-c]pyridin-2-ylsulfonyl(isopropyl)amino]-N-[[6-[4-(trifluoromethyl)-phenyl]pyrimidin-4-yl]methyl]acetamide], the IC50 is 13 nM.
Regarding `CN(C)c1nc(CNC(=O)[C@@H]2CCCN2S(=O)(=O)c2cc3ccccc3o2)cc(-c2ccc(C(F)(F)F)nc2)n1` [Example 371, (2S)-1-(benzofuran-2-ylsulfonyl)-N-[[2-(dimethylamino)-6-[6-(trifluoromethyl)-3-pyridyl]pyrimidin-4-yl]methyl]pyrrolidine-2-carboxamide], the IC50 was found to be 10 nM.
Same read-out and setting: in the case of `CN(C)c1nc(CNC(=O)[C@@H]2CCCN2S(=O)(=O)c2cc3ccccc3o2)cc(-c2ccc(C(F)(F)F)cc2O)n1` [Example 376, (2S)-1-(benzofuran-2-ylsulfonyl)-N-[[2-(dimethylamino)-6-[2-hydroxy-4-(trifluoromethyl)phenyl]-pyrimidin-4-yl]methyl]pyrrolidine-2-carboxamide] it was 21 nM; in that of `CC(C)N(CC(=O)NCc1cc(-c2ccc(C(F)(F)F)cn2)ccn1)S(=O)(=O)c1cc2cc(F)ccc2o1` [Example 348, 2-[(5-fluorobenzofuran-2-yl)sulfonyl-isopropyl-amino]-N-[[4-[5-(trifluoromethyl)-2-pyridyl]-2-pyridyl]methyl]acetamide], 16 nM.
Still for that read-out and setting: in the case of `O=C(NCc1cc(-c2ccc(C(F)(F)F)cc2)ncn1)[C@@H]1CCN1S(=O)(=O)c1cc2ccccc2o1` [Example 386, (2S)-1-(benzofuran-2-ylsulfonyl)-N-[[6-[4-(trifluoromethyl)phenyl]-pyrimidin-4-yl]methyl]azetidine-2-carboxamide] it was 6.6 nM; in that of `CN(C)c1nc(CNC(=O)[C@@H]2CCN2S(=O)(=O)c2cc3cc(F)ccc3o2)cc(-c2ccc(C(F)(F)F)cc2O)n1` [Example 398, (2S)-N-[[2-(dimethylamino)-6-[2-hydroxy-4-(trifluoromethyl)phenyl]-pyrimidin-4-yl]methyl]-1-(5-fluorobenzofuran-2-yl)sulfonyl-azetidine-2-carboxamide], 21 nM; in that of `CC(C)N(CC(=O)NCc1cc(-c2ccc(C(F)(F)F)cc2O)ncn1)S(=O)(=O)c1cc2cc(F)ccc2o1` [Example 413, 2-[(5-fluorobenzofuran-2-yl)sulfonyl-isopropyl-amino]-N-[[6-[2-hydroxy-4-(trifluoromethyl)phenyl]pyrimidin-4-yl]methyl]acetamide], 12 nM.
As to `O=C(NCc1cc(-c2ccc(C(F)(F)F)cn2)cnn1)[C@@H]1CCN1S(=O)(=O)c1cc2cc(F)ccc2o1` [Example 391, (2S)-1-(5-fluorobenzofuran-2-yl)sulfonyl-N-[[5-[5-(trifluoromethyl)-2-pyridyl]pyridazin-3-yl]methyl]azetidine-2-carboxamide], the IC50 stood at 26 nM.
Take `CN(C)c1nc(CNC(=O)[C@@H]2CCN2S(=O)(=O)c2cc3ccccc3o2)cc(-c2ccc(C(F)(F)F)nc2)n1` [Example 410, (2S)-1-(benzofuran-2-ylsulfonyl)-N-[[2-(dimethylamino)-6-[6-(trifluoromethyl)-3-pyridyl]pyrimidin-4-yl]methyl]azetidine-2-carboxamide]: the IC50 was found to be 38 nM.
In the case of `CC(C)(C)OC(=O)c1cc(CNC(=O)[C@@H]2CCCN2S(=O)(=O)c2cc3ccccc3o2)cc(-c2ccc(C(F)(F)F)cc2)c1` [Example 338, tert-butyl 3-[[[(2S)-1-(benzofuran-2-ylsulfonyl)pyrrolidine-2-carbonyl]amino]methyl]-5-[4-(trifluoromethyl)phenyl]-benzoate], the IC50 was 12 nM.
The same measure, in the same setting: next, `O=C(NCc1cccc(-c2cnc(C(F)(F)F)cn2)c1)[C@@H]1CCCN1S(=O)(=O)c1cc2cc(F)ccc2o1` [Example 399, (2S)-1-(5-fluorobenzofuran-2-yl)sulfonyl-N-[[3-[5-(trifluoromethyl)pyrazin-2-yl]phenyl]methyl]pyrrolidine-2-carboxamide]: 2.5 nM; `O=C(NCc1cc(-c2ccc(C(F)(F)F)cn2)ccn1)[C@@H]1CCCN1S(=O)(=O)c1cc2ccccc2o1` [Example 179, (2S)-1-(benzofuran-2-ylsulfonyl)-N-[[4-[5-(trifluoromethyl)-2-pyridyl]-2-pyridyl]methyl]pyrrolidine-2-carboxamide]: 4.1 nM; `C[C@H](NS(=O)(=O)c1cc2cc(F)ccc2o1)C(=O)NCc1cc(-c2ccc(C(F)(F)F)nc2)ncn1` [Example 191, (2S)-2-[(5-fluorobenzofuran-2-yl)sulfonylamino]-N-[[6-[6-(trifluoromethyl)-3-pyridyl]pyrimidin-4-yl]methyl]propanamide]: 35 nM.

The record behind these values is US10626112B2, “Heterocyclic sulfonamide derivative and medicine comprising same” (EA PHARMA CO., LTD., priority 2014, dated 2020).
